{"source": "patent US20240408071A1", "about": "“NOVEL COMBINATION OF SEROTONIN RECEPTOR (5-HTR2B) ANTAGONIST AND AN IMMUNOMODULATOR AND CHEMOTHERAPEUTIC DRUGS FOR INHIBITION OF CANCER” (NATIONAL CENTRE FOR CELL SCIENCE, priority 2021, published 2024)", "tested_on": "OT-II CD4 T cells", "assay": "OT-II peptide-specific proliferation of CFSE-tagged OT-II CD4 T cells in vitro", "assay_type": "cell-based, mouse", "details": "BW-723C86 10 μM, OT-II peptide (Ova323-339), 5 days (FIG. 12A-B)", "procedure": "FIG. 12 depicts that 5-HTR2B signalling affects the antigen-specific proliferation of CD4 T cells: (A-B) Total CD4 T cells were harvested from the lymph node of OT-II mice and they were tagged with CFSE and cultured in vitro in the presence or absence of OT-II peptide (Ova323-339), IL-2, 5-HTR2B agonist BW-723C86 (10 μM), Serotonin (20 μM) or 5-HTR2B antagonist RS-127445 (15 μM) for 5 days. After 5 days the proliferation of OT-II tetramer^+ CD4 T cells was measured and plotted as histogram overlay (A) or as statistical data (B). (C-D) Flow cytometric data and statistical analysis of the percentage of intra-tumoral OT-II-tetramer^+ IFNγ^+ CD4 T cell population from the control and RS-127445 treated MC38-ova tumor-bearing mice. (E-F) Flow cytometric data and statistical analysis of the percentage of intra-tumoral OT-II-tetramer^+ IFNγ^+ CD4 T cell population from the control and RS-127445 treated MC38-ova tumor-bearing mice. […]\nA simple adoptive transfer experiment was performed to study the enhancement of CTL response in general or antigen-specific. […] The CFSE-tagged total lymph node cells from […] were cultured in the presence or absence of OT-II peptide (Ova323-339) 5-HTR2B agonist (BW-723C86), serotonin, and 5-HTR2B antagonist (RS-127445) as indicated in the figure for 5 days and the proliferation was measured (FIG. 12A-B). […]", "data": [{"smiles": "CC(N)Cc1c[nH]c2ccc(OCc3cccs3)cc12", "note": "(stereo not shown) [BW-723C86]", "values": [{"measurement": "OT-II peptide-specific proliferation of OT-II CD4 T cells", "value": "significantly reduced"}]}]}
